# Results reported in patent US7342092B2, “Cancer antigen peptide formulations” (International Institute of Cancer Immunology, Inc., priority 2002, dated 2008).
# Where no end group is shown, it is not given here.
# Legend:
# [1] = tested on: lung cancer patient two with metastasis at stage IV; experiment: Change in blood tumor marker levels in the lung cancer patient two, Example 2; format: in vivo, human
# Procedure: The present example illustrates the case of the lung cancer patient two with metastasis at stage IV, who was administered with the WT1 peptide vaccine. In a similar manner to Example 1, a solution of wild type WT1 peptide (SEQ ID NO: 2) was mixed with Montanide ISA (registered trademark) 51 to provide a water-in-oil emulsion each just before the administration wherein the emulsion was injected intradermally at the upper arm of the patient totally six times, i.d. on day 0, 14, 28, 42, 56, and 71 wherein day 0 represents the day when the first administration was conducted.
# The levels of tumor markers, CEA and SLX, were determined in a similar manner to Example 1, and the level of CYFRA (cytokeratin 19 fragments) was determined using Elecsys CYFRA produced by Roche.
# [2] = tested on: peripheral blood mononuclear cells (PBMC); experiment: ELISPOT of IFN-γ producing T cells in PBMC, Example 1; format: cell-based, human; settings: PBMC receiving the peptide in comparison with PBMC not receiving the peptide
# [3] = tested on: cancer patient two suffered from acute myeloblastic leukemia (AML-M1) transformed from Myelodysplastic Syndromes (MDS); experiment: Leukocyte number and bone marrow leukemic blasts in the leukemia patient, Example 3; format: in vivo, human
# Procedure: The present example illustrates the case of the cancer patient two suffered from acute myeloblastic leukemia (AML-M1) transformed from Myelodysplastic Syndromes (MDS), who was administered with the WT1 peptide vaccine. The WT1 peptide used in this example was altered type WT1 peptide: Cys Tyr Thr Trp Asn Gln Met Asn Leu (SEQ ID NO: 3) synthesized by MPS Inc. (U.S.) with GMP grade. In a similar manner to Example 1, the peptide was mixed with MONTANIDE ISA (registered trademark) 51 to provide a water-in-oil emulsion, and the emulsion was injected intradermally at the upper arm of the patient. Leukemic blasts occupied 50% of the bone marrow two days before the administration, while the total number of leukocytes was 1500/μl on the day before the administration. Two days after the administration, the total number of leukocytes was decreased to 700/μl, and the leukemic blasts of the bone marrow reduced to 27%. When a hemopoietic factor, G-CSF, was administered to the patient in the light of the decreased total number of leukocytes, the total number recovered to 2150/μl, and the leukemic blasts of the bone marrow was 11% seven days after the administration.
# [4] = tested on: CTLs reactive to the wild type WT1 peptide-presenting HLA-A*2402 molecule; experiment: HLA tetramer method, CTLs reactive to wild type WT1 peptide-presenting HLA-A*2402, Example 3; format: in vivo, human; settings: two days after the administration; 1.1% three days before the administration
# Procedure: Subsequently, the number of cytotoxic T cells (CTLs) reactive to the wild type WT1 peptide-presenting HLA-A*2402 molecule in the same patient was determined by an HLA tetramer method. The HLA-A*2402 tetramer was prepared using the wild type WT1 peptide according to the method described in Int. J. Cancer 100, 565-570 (2002). On a flow cytometer, FACS, the cells were stained with the two colors of PE-labeled HLA-A*2402 tetramer and FITC-labeled CD8 antibody, and the double-positive cells were assigned to CTLs recognizing the wild type WT1 peptide, i.e., CTLs reactive to WT1-positive cancer cells. CTL frequency three days before the administration of the peptide was 1.1%, whereas the frequency was increased to 8.8% two days after the administration.
Sequence,"level of SLX in blood ([1]; on and after the 2nd administration, before administration 50 U/ml, upper limit of normal 38 U/ml, FIG. 2)","level of CEA in blood ([1]; on and after the 2nd administration, before administration higher than upper limit of normal 5 ng/ml, FIG. 2)","level of CYFRA in blood ([1]; on and after the 3rd administration, below the upper limit of normal level, FIG. 2)","development of the tumor ([1]; water-in-oil emulsion, overall conclusion of Example 2)",T cells producing IFN-γ in response to specifically the peptide (ELISPOT) [2],"leukemic blasts of the bone marrow ([3]; seven days after the administration, G-CSF also given)","leukemic blasts of the bone marrow ([3]; two days after the administration, 50% two days before the administration)","conditions of leukemia ([3]; water-in-oil emulsion, overall conclusion of Example 3)",CTL frequency (HLA-A*2402 tetramer and CD8 double-positive cells) [4]
CMTWNQMNL [wild type WT1 peptide],decreased to reach the normal level,decreased,< 2 ng/mL,suppressed the development of the tumor,found to be more,–,–,–,–
CYTWNQMNL [altered type WT1 peptide],–,–,–,–,–,11%,27%,improved the conditions of leukemia with decreased ratio of the leukemic blasts in the bone marrow,8.8%
